{"source": "the supplement of paper PMC11208160", "data": [{"assay": "recombinant UMI read abundance after kanamycin selection (control-corrected) (log10(CPM+1)); higher = more efficient recombination; extreme values may be limits of the assay; sequences stand for … in AGTGCAGAGAAAATCGGCCAGTTTTCTCTGCCTGCAGTCCGCATGCCGTGGGACCCCTTGGGTTCTAACCTGTTGCCTAGATTTATGCAGCGGACTGCCTTTCTCCCAAAGTGATAAACCGG…AGGTTGGTTTCACT; site = the 11-nt donor", "method_in_brief": "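In a pooled Escherichia coli screen for the IS621 bridge recombinase, donor and donor-binding-loop pairs were each placed with a 12-nt UMI on a plasmid bearing a promoterless kanamycin gene. This library was co-electroporated with a target plasmid encoding a fixed target and T7-inducible recombinase, and cells were plated either on IPTG (0.07 mM) plus kanamycin or without selection, in two replicates each. Recombinant UMIs were PCR-amplified across the donor–target junction and sequenced, and counts were converted to CPM, averaged over replicates, scaled by control-derived factors and reported as log10(CPM+1).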", "values": [{"sequence": "GCGAAGGCATGGACCGGTTTTCCCGGTAATCCGTATTTGGG (site GCGAAGACTCC)", "recombinant UMI read abundance (log10)": 0.255}, {"sequence": "GCGAAGGCATGGACCGGTTTTCCCGGTAATCCGTATTTGGG (site GCGAAGCCTCC)", "recombinant UMI read abundance (log10)": 0.00939}, {"sequence": "GCGAAGGCATGGACCGGTTTTCCCGGTAATCCGTATTTGGG (site GCGAAGGCTCC)", "recombinant UMI read abundance (log10)": 0.562}, {"sequence": "GCGAAGGCATGGACCGGTTTTCCCGGTAATCCGTATTTGGG (site GCGAAGTCTCC)", "recombinant UMI read abundance (log10)": 0.779}, {"sequence": "GCGAATACATGGACCGGTTTTCCCGGTAATCCGTATTTGCT (site GCGAAAACTAG)", "recombinant UMI read abundance (log10)": 0}, {"sequence": "GCGAATACATGGACCGGTTTTCCCGGTAATCCGTATTTGCT (site GCGAACACTAG)", "recombinant UMI read abundance (log10)": 0}, {"sequence": "GCGAATACATGGACCGGTTTTCCCGGTAATCCGTATTTGCT (site GCGAAGACTAG)", "recombinant UMI read abundance (log10)": 0}, {"sequence": "GCGAATACATGGACCGGTTTTCCCGGTAATCCGTATTTGCT (site GCGAATACTAG)", "recombinant UMI read abundance (log10)": 0}, {"sequence": "GCGAATGCATGGACCGGTTTTCCCGGTAATCCGTATTTGGA (site GCGAATGCTTC)", "recombinant UMI read abundance (log10)": 1.42}, {"sequence": "GCGACGCCATGGACCGGTTTTCCCGGTAATCCGTATTTGGG (site GCGAAGCCTCC)", "recombinant UMI read abundance (log10)": 0.0164}, {"sequence": "GCGACGCCATGGACCGGTTTTCCCGGTAATCCGTATTTGGG (site GCGACGCCTCC)", "recombinant UMI read abundance (log10)": 0.00484}, {"sequence": "GCGACGCCATGGACCGGTTTTCCCGGTAATCCGTATTTGGG (site GCGAGGCCTCC)", "recombinant UMI read abundance (log10)": 0.0192}, {"sequence": "GCGACGCCATGGACCGGTTTTCCCGGTAATCCGTATTTGGG (site GCGATGCCTCC)", "recombinant UMI read abundance (log10)": 0.00415}, {"sequence": "GCGATAACATGGACCGGTTTTCCCGGTAATCCGTATTTGCT (site GCGAAAACTAG)", "recombinant UMI read abundance (log10)": 0}, {"sequence": "GCGATAACATGGACCGGTTTTCCCGGTAATCCGTATTTGCT (site GCGACAACTAG)", "recombinant UMI read abundance (log10)": 0.00488}, {"sequence": "GCGATAACATGGACCGGTTTTCCCGGTAATCCGTATTTGCT (site GCGAGAACTAG)", "recombinant UMI read abundance (log10)": 0}, {"sequence": "GCGATAACATGGACCGGTTTTCCCGGTAATCCGTATTTGCT (site GCGATAACTAG)", "recombinant UMI read abundance (log10)": 2.43}, {"sequence": "GCGATACCATGGACCGGTTTTCCCGGTAATCCGTATTTGAT (site GCGATACCTAT)", "recombinant UMI read abundance (log10)": 0}, {"sequence": "GCGATTCCATGGACCGGTTTTCCCGGTAATCCGTATTTGTA (site GCGATTCCTTA)", "recombinant UMI read abundance (log10)": 1.49}, {"sequence": "GCGCATGCATGGACCGGTTTTCCCGGTAATCCGTATTTGGT (site GAGCATGCTAC)", "recombinant UMI read abundance (log10)": 0.595}, {"sequence": "GCGCATGCATGGACCGGTTTTCCCGGTAATCCGTATTTGGT (site GCGCATGCTAC)", "recombinant UMI read abundance (log10)": 1.14}, {"sequence": "GCGCATGCATGGACCGGTTTTCCCGGTAATCCGTATTTGGT (site GGGCATGCTAC)", "recombinant UMI read abundance (log10)": 0.0133}, {"sequence": "GCGCATGCATGGACCGGTTTTCCCGGTAATCCGTATTTGGT (site GTGCATGCTAC)", "recombinant UMI read abundance (log10)": 0.622}, {"sequence": "GCGCCTCCATGGACCGGTTTTCCCGGTAATCCGTATTTGGG (site GCGCCTCCTCC)", "recombinant UMI read abundance (log10)": 0.0195}, {"sequence": "GCGCGCTCATGGACCGGTTTTCCCGGTAATCCGTATTTGAA (site GCGCGCTCTTT)", "recombinant UMI read abundance (log10)": 1.82}, {"sequence": "GCGCTCACATGGACCGGTTTTCCCGGTAATCCGTATTTGCC (site GCGCTCACTGG)", "recombinant UMI read abundance (log10)": 2.47}, {"sequence": "GCGGACACATGGACCGGTTTTCCCGGTAATCCGTATTTGCT (site GCGGACACTAG)", "recombinant UMI read abundance (log10)": 2.44}, {"sequence": "GCGGAGGCATGGACCGGTTTTCCCGGTAATCCGTATTTGTG (site GAGGAGGCTCA)", "recombinant UMI read abundance (log10)": 0.367}, {"sequence": "GCGGAGGCATGGACCGGTTTTCCCGGTAATCCGTATTTGTG (site GCGGAGGCTCA)", "recombinant UMI read abundance (log10)": 1.37}, {"sequence": "GCGGAGGCATGGACCGGTTTTCCCGGTAATCCGTATTTGTG (site GGGGAGGCTCA)", "recombinant UMI read abundance (log10)": 0.333}, {"sequence": "GCGGAGGCATGGACCGGTTTTCCCGGTAATCCGTATTTGTG (site GTGGAGGCTCA)", "recombinant UMI read abundance (log10)": 0.832}, {"sequence": "GCGGCATCATGGACCGGTTTTCCCGGTAATCCGTATTTGTC (site GCGGCATCTGA)", "recombinant UMI read abundance (log10)": 2.21}, {"sequence": "GCGGGCGCATGGACCGGTTTTCCCGGTAATCCGTATTTGAT (site GCGGGCGCTAT)", "recombinant UMI read abundance (log10)": 1.44}, {"sequence": "GCGGGTGCATGGACCGGTTTTCCCGGTAATCCGTATTTGCC (site GCGGGTGCTGG)", "recombinant UMI read abundance (log10)": 1.43}, {"sequence": "GCGGTTCCATGGACCGGTTTTCCCGGTAATCCGTATTTGTC (site GCGGTTCCTGA)", "recombinant UMI read abundance (log10)": 0}, {"sequence": "GCGTAGGCATGGACCGGTTTTCCCGGTAATCCGTATTTGCT (site GCGTAGGCTAG)", "recombinant UMI read abundance (log10)": 2.51}, {"sequence": "GCGTCAACATGGACCGGTTTTCCCGGTAATCCGTATTTGCG (site GCGTCAACTCG)", "recombinant UMI read abundance (log10)": 0.00614}, {"sequence": "GCGTCGTCATGGACCGGTTTTCCCGGTAATCCGTATTTGTT (site GCGTCGTCTAA)", "recombinant UMI read abundance (log10)": 0.947}, {"sequence": "GCTACCTCATGGACCGGTTTTCCCGGTAATCCGTATTTGTC (site GCTACCTCTGA)", "recombinant UMI read abundance (log10)": 2.17}, {"sequence": "GCTACGCCATGGACCGGTTTTCCCGGTAATCCGTATTTGTA (site GCAACGCCTTA)", "recombinant UMI read abundance (log10)": 0.00895}, {"sequence": "GCTACGCCATGGACCGGTTTTCCCGGTAATCCGTATTTGTA (site GCCACGCCTTA)", "recombinant UMI read abundance (log10)": 0.0278}, {"sequence": "GCTACGCCATGGACCGGTTTTCCCGGTAATCCGTATTTGTA (site GCGACGCCTTA)", "recombinant UMI read abundance (log10)": 0.162}, {"sequence": "GCTACGCCATGGACCGGTTTTCCCGGTAATCCGTATTTGTA (site GCTACGCCTTA)", "recombinant UMI read abundance (log10)": 0.343}, {"sequence": "GCTACTCCATGGACCGGTTTTCCCGGTAATCCGTATTTGCC (site GCTACTACTGG)", "recombinant UMI read abundance (log10)": 0}, {"sequence": "GCTACTCCATGGACCGGTTTTCCCGGTAATCCGTATTTGCC (site GCTACTCCTGG)", "recombinant UMI read abundance (log10)": 0}, {"sequence": "GCTACTCCATGGACCGGTTTTCCCGGTAATCCGTATTTGCC (site GCTACTGCTGG)", "recombinant UMI read abundance (log10)": 0}, {"sequence": "GCTACTCCATGGACCGGTTTTCCCGGTAATCCGTATTTGCC (site GCTACTTCTGG)", "recombinant UMI read abundance (log10)": 0.0501}, {"sequence": "GCTACTGCATGGACCGGTTTTCCCGGTAATCCGTATTTGGC (site GCTACTGCTGA)", "recombinant UMI read abundance (log10)": 0.76}, {"sequence": "GCTACTGCATGGACCGGTTTTCCCGGTAATCCGTATTTGGC (site GCTACTGCTGC)", "recombinant UMI read abundance (log10)": 1.92}, {"sequence": "GCTACTGCATGGACCGGTTTTCCCGGTAATCCGTATTTGGC (site GCTACTGCTGG)", "recombinant UMI read abundance (log10)": 0}, {"sequence": "GCTACTGCATGGACCGGTTTTCCCGGTAATCCGTATTTGGC (site GCTACTGCTGT)", "recombinant UMI read abundance (log10)": 1.54}, {"sequence": "GCTAGAACATGGACCGGTTTTCCCGGTAATCCGTATTTGGC (site GATAGAACTGC)", "recombinant UMI read abundance (log10)": 0}, {"sequence": "GCTAGAACATGGACCGGTTTTCCCGGTAATCCGTATTTGGC (site GCTAGAACTGC)", "recombinant UMI read abundance (log10)": 2.02}, {"sequence": "GCTAGAACATGGACCGGTTTTCCCGGTAATCCGTATTTGGC (site GGTAGAACTGC)", "recombinant UMI read abundance (log10)": 0}, {"sequence": "GCTAGAACATGGACCGGTTTTCCCGGTAATCCGTATTTGGC (site GTTAGAACTGC)", "recombinant UMI read abundance (log10)": 0}, {"sequence": "GCTAGCACATGGACCGGTTTTCCCGGTAATCCGTATTTGCT (site GCTAGCACTAG)", "recombinant UMI read abundance (log10)": 1.64}, {"sequence": "GCTAGTGCATGGACCGGTTTTCCCGGTAATCCGTATTTGCC (site GCTAATGCTGG)", "recombinant UMI read abundance (log10)": 0}, {"sequence": "GCTAGTGCATGGACCGGTTTTCCCGGTAATCCGTATTTGCC (site GCTACTGCTGG)", "recombinant UMI read abundance (log10)": 0}, {"sequence": "GCTAGTGCATGGACCGGTTTTCCCGGTAATCCGTATTTGCC (site GCTAGTGCTGG)", "recombinant UMI read abundance (log10)": 1.86}, {"sequence": "GCTAGTGCATGGACCGGTTTTCCCGGTAATCCGTATTTGCC (site GCTATTGCTGG)", "recombinant UMI read abundance (log10)": 0}, {"sequence": "GCTATCACATGGACCGGTTTTCCCGGTAATCCGTATTTGGG (site GCTATCACTCC)", "recombinant UMI read abundance (log10)": 0.147}, {"sequence": "GCTATTGCATGGACCGGTTTTCCCGGTAATCCGTATTTGCC (site GCTAATGCTGG)", "recombinant UMI read abundance (log10)": 0}, {"sequence": "GCTATTGCATGGACCGGTTTTCCCGGTAATCCGTATTTGCC (site GCTACTGCTGG)", "recombinant UMI read abundance (log10)": 0}, {"sequence": "GCTATTGCATGGACCGGTTTTCCCGGTAATCCGTATTTGCC (site GCTAGTGCTGG)", "recombinant UMI read abundance (log10)": 0.00747}, {"sequence": "GCTATTGCATGGACCGGTTTTCCCGGTAATCCGTATTTGCC (site GCTATTGCTGG)", "recombinant UMI read abundance (log10)": 0.891}, {"sequence": "GCTCACCCATGGACCGGTTTTCCCGGTAATCCGTATTTGCT (site GCTCACCCTAG)", "recombinant UMI read abundance (log10)": 0}, {"sequence": "GCTCATTCATGGACCGGTTTTCCCGGTAATCCGTATTTGAG (site GCTCATTCTCT)", "recombinant UMI read abundance (log10)": 1.39}, {"sequence": "GCTCGCGCATGGACCGGTTTTCCCGGTAATCCGTATTTGTG (site GCTCGCGCTCA)", "recombinant UMI read abundance (log10)": 0.397}, {"sequence": "GCTCGTCCATGGACCGGTTTTCCCGGTAATCCGTATTTGGG (site GCTCGTCCTCC)", "recombinant UMI read abundance (log10)": 0.0164}, {"sequence": "GCTCTATCATGGACCGGTTTTCCCGGTAATCCGTATTTGCT (site GCTCTATCTAG)", "recombinant UMI read abundance (log10)": 2.04}, {"sequence": "GCTGCGCCATGGACCGGTTTTCCCGGTAATCCGTATTTGGA (site GCTGCGCCTTC)", "recombinant UMI read abundance (log10)": 0.0238}, {"sequence": "GCTGGGACATGGACCGGTTTTCCCGGTAATCCGTATTTGTG (site GCTGGGACTCA)", "recombinant UMI read abundance (log10)": 0.944}, {"sequence": "GCTGGTACATGGACCGGTTTTCCCGGTAATCCGTATTTGCG (site GCTGGTACTCG)", "recombinant UMI read abundance (log10)": 1.68}, {"sequence": "GCTGTGTCATGGACCGGTTTTCCCGGTAATCCGTATTTGCG (site GCTGTGTCTCG)", "recombinant UMI read abundance (log10)": 2.07}, {"sequence": "GCTTAAGCATGGACCGGTTTTCCCGGTAATCCGTATTTGCC (site GCTTAAGCTGG)", "recombinant UMI read abundance (log10)": 0.666}]}]}
